Laboratory results published in article PMC7707092, “Discovery and characterization of ORM‐11372, a novel inhibitor of the sodium‐calcium exchanger with positive inotropic activity” (British Journal of Pharmacology, 2020).
Values after ≈ are worked out from the molar mass of the structure shown. Read-outs that look alike come from different tables or passages of the source.

Columns and labels:
hERG = hERG (Homo sapiens, UniProt Q12809); assay: hERG IC50 of Table 1 / Table S2 (method not assigned); type: cell-based; conditions: n=4 assays
Chain of hERG (Q12809 whole entry): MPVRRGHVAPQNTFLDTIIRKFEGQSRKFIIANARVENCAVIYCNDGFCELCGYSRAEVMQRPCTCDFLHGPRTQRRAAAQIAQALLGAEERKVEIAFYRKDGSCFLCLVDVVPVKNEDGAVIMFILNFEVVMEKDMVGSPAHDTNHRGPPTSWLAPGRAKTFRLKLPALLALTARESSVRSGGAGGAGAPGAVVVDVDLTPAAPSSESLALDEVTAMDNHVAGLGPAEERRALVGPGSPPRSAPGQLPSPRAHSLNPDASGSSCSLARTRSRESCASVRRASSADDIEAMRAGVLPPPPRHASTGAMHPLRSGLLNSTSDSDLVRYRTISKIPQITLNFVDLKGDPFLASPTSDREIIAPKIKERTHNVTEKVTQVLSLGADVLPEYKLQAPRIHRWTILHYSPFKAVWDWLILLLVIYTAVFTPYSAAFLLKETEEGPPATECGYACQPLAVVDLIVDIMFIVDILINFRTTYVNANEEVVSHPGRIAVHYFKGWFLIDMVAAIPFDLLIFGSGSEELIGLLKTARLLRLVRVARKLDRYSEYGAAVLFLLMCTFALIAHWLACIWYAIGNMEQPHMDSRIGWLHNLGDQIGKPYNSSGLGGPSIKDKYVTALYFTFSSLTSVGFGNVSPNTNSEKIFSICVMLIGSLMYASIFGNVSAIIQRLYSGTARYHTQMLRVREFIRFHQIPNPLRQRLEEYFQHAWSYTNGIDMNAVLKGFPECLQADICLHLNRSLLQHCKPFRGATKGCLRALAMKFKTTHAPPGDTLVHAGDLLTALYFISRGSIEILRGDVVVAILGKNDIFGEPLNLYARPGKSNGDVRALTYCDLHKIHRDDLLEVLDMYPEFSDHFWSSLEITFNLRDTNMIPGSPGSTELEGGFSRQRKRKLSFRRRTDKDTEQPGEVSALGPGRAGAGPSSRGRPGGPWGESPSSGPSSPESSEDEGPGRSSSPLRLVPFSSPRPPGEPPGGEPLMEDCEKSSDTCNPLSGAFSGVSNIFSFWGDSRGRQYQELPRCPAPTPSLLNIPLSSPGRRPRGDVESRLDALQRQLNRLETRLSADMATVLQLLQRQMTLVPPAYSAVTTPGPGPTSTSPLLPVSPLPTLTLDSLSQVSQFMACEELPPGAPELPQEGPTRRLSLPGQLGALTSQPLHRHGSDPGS

Solubility = type: physicochemical; conditions: pH 7.4 phosphate buffer; for solubility: phosphate buffer, pH 7.4, aqueous buffer
human NCX 1.1 = target: T1, human NCX 1.1 (Homo sapiens, UniProt P32418); assay: Fluorescence screening assay for hNCX 1.1 inhibition (reverse mode, Sf9 cells); type: cell-based; conditions: for IC50: Sf9 cells expressing human NCX1.1, reverse mode, fluorescence, n=3 assays
T1 construct: expressed in transfected cells
Protocol: Spodoptera frugiperda (Sf9; RRID:CVCL_0549) cells are widely used for the transient and stable expression of recombinant proteins. Here, Sf9 cells were stably transfected with human NCX 1.1 and maintained in spinner flasks with insect cell culture medium (TNM‐FH), supplemented with 10% FBS, antibiotic–antimycotic solution, and 50 μg·ml^−1 of blasticidin at 28°C in a non‐humidified, CO2‐free atmosphere. The Sf9 cell suspension was subcultured three times a week.
NCX reverse mode activity was stimulated via a 50% dilution of the extracellular Na^+ level using the internal pipettor of FLEXstation, a fluorescence imaging plate reader (Molecular Devices, USA), while simultaneously monitoring intracellular calcium levels. After dilution, the concentration of other ions remained the same, but Na^+ concentration was diluted to the half of original concentration of 172 to 86 mM. For Sf9 insect cells, normal extracellular Na^+ ion concentration is 172 mM. Typically, 50 μl of a solution containing 150,000–200,000 Sf9–NCX cells was loaded onto each well of a 96‐well plate. Cells were preincubated with the intracellular calcium dye Fluo‐4 and Fluo‐6, and the concentrations of the test compound (three replicates) were determined for about 1 h at room temperature before experimentation. The extracellular solution contained (in mM) 172 NaCl, 10 HEPES, 1 CaCl2, 1.2 MgCl2, 0.33 NaH2PO4, 5 glucose, and 5 probenecid. The pH was adjusted to 7.4 with NaOH. The extracellular Na^+ was diluted by the addition of a Na^+‐free extracellular solution (containing in mM: 147 N‐methyl‐D‐glucamine (NMDG), 10 HEPES, 1 CaCl2, 1.2 MgCl2, 0.33 NaH2PO4, and 5 glucose with the pH adjusted by HCl to 7.4)‐induced robust and reproducible elevation of intracellular calcium. The osmolarity of both solutions was adjusted to 340–355 mOsm in order to match the Sf9 cell media osmolarity. In each plate, the IC50 determination for each test compound was based on relative fluorescence changes in comparison with control and 5‐mM nickel acetate‐induced NCX inhibition.

L‐type calcium channel = L‐type calcium channel inhibition, fluorescence assay in IMR‐32 cells; type: cell-based, human; conditions: KCl depolarization, n=4 assays, read-out: L‐type Ca^2+ IC50
Protocol: CHO cells stably expressing either hERG1a (KV11.1) channels (KCNH2; RRID:CVCL_H512) or human 5‐HT2B receptors were cultured at 37°C in a 5% CO2/95% air atmosphere in the Ham's Nutrient Mixture F‐12 (HAM F‐12) medium supplemented with 10% FBS (heat inactivated), 100 μg·ml^−1 of hygromycin B (Invitrogen), and 100 μg·ml^−1 of geneticin or 100 IU·ml^−1 of penicillin and 100 IU·ml^−1 of streptomycin, 25‐mM HEPES, 500 μg·ml^−1 of geneticin, and 250 μg·ml^−1 of Zeocin®. Adhered cells were detached using either Detachin® solution or trypsin and replated twice a week. HEK 293 (RRID:CVCL_0045) and IMR‐32 cells (CCL‐127; RRID:CVCL_0346) were cultured similarly but maintained instead in DMEM, supplemented with 10% FBS (heat inactivated), 100 IU·ml^−1 of penicillin and 100 IU·ml^−1 of streptomycin, and 25‐mM HEPES, and in the case of the IMR‐32 cell line, with minimum essential medium (MEM) non‐essential amino acids. IMR‐32 cells are derived from a human neuroblastoma and endogenously express L‐type (CaV1.x) calcium channel (Sher, Gotti, Pandiella, Madeddu, & Clementi, 1988).
Undifferentiated IMR‐32 cells were harvested, centrifuged, and resuspended in a probenecid‐Ringer solution consisting (in mM) 150 NaCl, 3 KCl, 1.2 MgCl2, 1 CaCl2, 20 HEPES, 5 glucose and 2.5 probenecid (pH 7.4 adjusted with NaOH, osmolarity 320–324 mOsm). We added 0.04% Pluronic F‐127 and Fluo‐4 to this solution, and after incubating the cells for 30 min at room temperature, these additives were removed from the probenecid‐Ringer solution by centrifugation and resuspension. The cell suspension was pipetted (250,000 cells in 75 μl per well) into a 96‐well plate, into which the test compound (75 μl per well at […] the final concentration; five concentrations with eight replicates) had already been added. The plate was centrifuged once (5 min, at 287 x g) to ensure that the cells were moved to the bottom of the wells. FLEXstation was then used to measure the increase in intracellular calcium at 37°C, following depolarization, which was induced by the addition (50 μl per well) of a KCl‐Ringer solution containing (in mM) 200 KCl, 20 CaCl2, 1.2 MgCl2, 20 HEPES and 2.5 probenecid respectively (pH adjusted to 7.4 with KOH, with an osmolarity of 320–324 mOsm).

[1] = test system: human ventricular trabeculae; conditions: 1 or 2 Hz; ORM‐11372 any tested concentration; dofetilide 0.1 μM (positive control)
healthy rats = assay: In vivo haemodynamics in healthy rats (supplement); parameters: species or system rat
Excerpt: In vivo haemodynamics in healthy rats
Experimental Animals and General Study Protocol
Rat was selected to the study as it is the most widely used rodent species in the toxicology studies performed for the small molecules during the drug development. […]
All animal experiments were made according to European Community Guidelines for the use of experimental animals and approved by Finnish National Animal Experiment Board. All studies complied with the ARRIVE guidelines, (NC3Rs Reporting Guidelines Working Group, 2010).
Specific pathogen free animals were housed in half -barrier rooms where special protecting clothing for personnel was required. Animal rooms were cleaned regularly 3 times per week and cages and bottles were […]
changed regular intervals once a week. Temperature was maintained at 22 ± 2°C and humidity at 55 ± 15%.
Light-dark cycle was lights on from 06.00 to 20.00h.
Male Sprague-Dawley rats (Harlan, Netherlands B.V.) were housed in polycarbonate cages (Makrolon® IV with stainless steel wire mesh lids). Maximally 5 rats were housed per cage with aspen chip bedding (Tapvei Ky, Kaavi, Finland). Rats had free access to water (twice filtered, Espoon Vesi) and rodent diet (SDS RM1
(P) SQC pelleted diet, Special Diet Services Ltd, Witham, England). Acclimation period before experiments was at least 5 days. Healthy 10-12 weeks aged weighing 300-400 g rats were randomized to ORM-11372, dobutamine or vehicle group.
At the end of the haemodynamic experiments, rats were terminated with an overdose of pentobarbital.
Anesthesia and ventilation
Rats were anaesthetised with isoflurane (2.25-2.5 %, Baxter) in carbogen (95 % O2 and 5 % CO2) and nitrous oxide (1:1) using a small rodent ventilator (Ugo Basile 7025, ~10 ml/kg, 60 strokes/min). The rats were infused with 0.9 % NaCl in […] at the stabilization and baseline level. Animals were placed on a heating table (+38°C). Tracheas were cannulated.
Systemic blood (SP) and left ventricular pressures (LVP) were measured with pressure transducers (BP:
Isotec, Hugo Sachs Elektronic, Germany; LVP: Mikro-Tip transducer SPR-249, Millar Instruments, USA). The signal was amplified (DC-bridge amplifier type 660, Hugo Sachs Elektronik, Germany), digitised (I/O connector block type SCB-68, National Instruments, USA), recorded and analysed (IHME 1.0.9, Fision Ltd, Finland). Left ventricular inotropic effect (LV +dP/dtmax) and relaxation (LV -dP/dtmin) and heart rate (HR) were analysed from LVP signal.
Blood sampling for the evaluation of plasma levels of the drug
At the end of each infusion, the blood samples (300-500 µl) were taken into chilled EDTA polypropylene tube (CapiJect®, Terumo) and centrifuged (4000 rpm, 10 min, at 4°C). Plasma was immediately frozen in polypropylene tubes and stored at –20°C. ORM-11372 and dobutamine were extracted from plasma samples using a liquid–liquid extraction and analysed using liquid chromatography–tandem mass spectrometry (Agilent Technologies series 1100 liquid chromatographic system and a Sciex LC-MS/MS API 4000 mass spectrometry). The lower limit of quantification for total plasma concentrations were 32.0 and 5.00 ng/ml from total for ORM-11372 and dobutamine, respectively. […]
The effects of dobutamine on blood pressure varies partially due to the use of racemate as active ingredient in the pharmaceutical formulation. (-)-dobutamine is α1-agonist and therefore causes increases in cardiac output and peripheral resistance. (+)-dobutamine acts via β1- and β2-adrenoceptors which leads to increase in heart rate and reduction in blood pressure 16.
Figure S20 Haemodynamics in healthy rats
Effects of ORM-11372 and dobutamine on haemodynamics in isoflurane anesthetized 10-12 weeks aged male Sprague-Dawley rats (Harlan, Netherlands B.V.) weighing 300-400 g. Shown are mean ± SEM and individual effects on the left ventricular contractility (LV+dP/dtmax, panel A), relaxation (LV-dP/dtmax, panel B), heart rate (panel C), and systolic arterial blood pressure (SAP, paned D). […]

NCX = test system: NCX; parameters: method as in Jost et al., 2013; Kohajda et al., 2016; conditions: Dog, reference not given, ref Jost et al., 2013, Kohajda et al., 2016, cited from earlier work
hNCX1 = hNCX1 (Homo sapiens, UniProt P32418); assay: Confirmatory fluorescence assay for hNCX1 inhibition (forward mode, HEK293 cells, Charles River); type: cell-based; conditions: HEK293, forward mode, Table S2; read-out: hNCX1-HEK IC50
Protocol: A confirmatory hNCX1 inhibition assay was performed in Charles River Laboratories, Cleveland. Briefly, HEK293 cells stably expressing hNCX1 were plated in 384‐well black wall, clear‐bottom microtitre plates and the next day loaded with Fluo‐8 for 30 min at 37°C. A plate was inserted into a FLIPR^TETRA, and a baseline was recorded during a preincubation period where test compound or vehicle in a Na^+‐free HB‐PS containing thapsigargin (6 μM) and […] (30 μM) was added to each well for ~5 min. Next, the NCX1 stimulation period was recorded in which Na^+‐containing HB‐PS (with 2‐μM thapsigargin and 10‐μM FCCP) was added. The experiments were performed at room temperature. The kinetic data generated were reduced for each well to maximum relative fluorescence units (RFU) minus minimum RFU after subtracting bias based on the first sample. The mean of the max–min RFU values during the stimulation period for the 3–4 replicates at each concentration on a plate was then plotted versus concentration and fitted to a Hill equation.

SMILES | IC50 (hERG) | solubility (Solubility; read-out: Solubility class) | IC50 (human NCX 1.1) | further results
Fc1ccc(NCc2ccc(-c3cccc(Cl)c3)o2)cc1Cl [ORM‐11217] | 14600 nM | 10 to 100 µg/mL (≈ 29.7 to 297 µM) | 210 nM | –
O=[N+]([O-])c1ccccc1-c1ccc(CNc2ccc(F)c(Cl)c2)o1 [ORM‐120407, 3-chloro-4-fluoro-N-((5-(2-nitrophenyl)furan-2-yl)methyl)aniline] | 2100 nM | < 10 µg/mL | 231 nM | solubility (Solubility; read-out: Solubility): < 10 µg/mL; inhibition at 10 µM (human NCX 1.1; 10 μM, fluorescence‐based assay, read-out: NCX1.1 inhibition): 87%; IC50 (L‐type calcium channel): 3100 nM
Fc1ccc(NCc2coc(-c3ccccc3)n2)cc1Cl [ORM‐11298] | > 10000 nM | 10 to 100 µg/mL (≈ 33 to 330 µM) | 31 nM | –
Fc1ccc(NCc2ccc(-c3ccccn3)o2)cc1F [ORM‐11817] | 2400 nM | < 10 µg/mL | 3 nM | IC50 (L‐type calcium channel): 10400 nM
Fc1ccc(NCc2ccc(-c3ccccc3Cl)o2)cc1Cl [ORM‐11165] | 9000 nM | < 10 µg/mL | 4 nM | IC50 (L‐type calcium channel): 2000 nM
O=[N+]([O-])c1cccc(-c2ccc(CNc3ccc(F)c(Cl)c3)o2)c1 [ORM‐11023] | – | – | 156 nM | –
CN(CCOc1ccc(NS(C)(=O)=O)cc1)CCc1ccc(NS(C)(=O)=O)cc1 [dofetilide, reference compound] | – | – | – | STV and triangulation (pro‐arrhythmia markers) [1]: increased
Fc1ccc(NCc2csc(-c3ccccc3Cl)n2)cc1F [ORM‐11863] | – | < 10 µg/mL | 2.5 nM | –
O=[N+]([O-])c1ccccc1-c1ccc(CNc2ccccc2)o1 [ORM‐11024] | – | – | 875 nM | –
CC(CCc1ccc(O)cc1)NCCc1ccc(O)c(O)c1 (centres unmarked) [dobutamine, reference compound] | – | – | – | absolute maximum positive inotropic effect (healthy rats): 59%; free plasma concentration achieving 25% positive inotropic effect (healthy rats): 25 ± 1.6 nM; free plasma concentration at absolute maximum positive inotropic effect (healthy rats): 199 ± 17 nM; free plasma concentration at the 10±2% (ORM-11372) / 16±3% (dobutamine) inotropic effect (healthy rats): 16 ± 0.8 nM; positive inotropic effect (healthy rats; at free plasma concentration 4±0.3 nM (ORM-11372), 16±0.8 nM (dobutamine)): 16±3%; increase in heart rate (healthy rats; free plasma concentration 96 nM): 15±5%; increase in heart rate (healthy rats; free plasma concentration 848 nM): 25±7%; relaxation (healthy rats; free plasma concentrations 16 to 199 nM): no effects
Fc1ccc(NCc2ccc(-c3cccnc3)o2)cc1F [ORM‐11875] | – | 10 to 100 µg/mL (≈ 34.9 to 349 µM) | 90 nM | –
Fc1ccc(NCc2ccc(-c3ccc(Cl)cc3)o2)cc1Cl [ORM‐11190] | – | – | 204 nM | –
O=[N+]([O-])c1ccc(Oc2ccc3c(c2)CCC(c2ccccc2)O3)nc1 (centres unmarked) [ORM-10103] | – | – | 176 nM | IC50 (NCX; read-out: IC50 NCX forward): 960 nM; IC50 (NCX; read-out: IC50 NCX reverse): 780 nM; IC50 (hNCX1): 1850 nM; Solubility class (Solubility): Insoluble (insoluble less than 10 µg/ml)
